Data on 3 molecules can be found in US7598072B2 (priority 2003, dated 2009).

Where two headings read alike, the source gives them in different places.

For experiment [1], the system named is ASLV. The settings on record: 30 mM or higher concentrations of NH4Cl; cited from earlier work.
Experiment [2] relates to ASLV. It counts as cell-based, avian sarcoma and leukosis virus. The settings on record: 3 mM NH4Cl, data not shown.
Experiment [3] deals with ASLV-A vector RCASBP(A)-EGFP. It counts as biochemical, avian sarcoma and leukosis virus.
The subject of experiment [4] is HIV [EnvA] pseudotyped virus. The experiment can be described thus: HIV [EnvA] cell-free fusion/uncoating reaction, HIV-1 early DNA by real-time PCR. It counts as biochemical. The settings on record: 4.5 mM, 200 μg 293 S10 fraction, 6 hour incubation. (In general: In qPCR the cycle at which signal appears reflects the starting amount.)

In the case of `Cl.N` [NH4Cl, ammonium chloride], the results for the “ASLV fusion and entry into cells” value in experiment [1] and in experiment [2] were “effectively blocked” and “unaffected”, respectively.

For `Nc1ncnc2c1ncn2[C@@H]1O[C@H](CO[P@](=O)(O)O[P@](=O)(O)O[P@@](=O)(O)S)[C@@H](O)[C@H]1O` [adenosine 5′-[γ-thio]triphosphate], the “effect on stimulation of ASLV early DNA synthesis in the cell-free system” value in experiment [3] (2.5 mM, 150 μg 293 S10 fraction, 6 hour incubation) was “markedly reduced”. In experiment [4], the “effect on stimulation of HIV-1 early DNA synthesis in the cell-free system” value was “markedly reduced”.

apyrase: the “effect on amount of ASLV early DNA products” value in experiment [3] (10 units/ml apyrase added 30 minutes or later after initiating the cell-free reaction) is reported as “little or no effect”; in experiment [3] (10 units/ml apyrase, 150 μg 293 S10 fraction), “reduced”.
